Data: the supplement of paper PMC10307832

Key:
Assay in all cases: relative viability (nuclei count vs DMSO), 5 days (fraction); higher = more cells survive
NCI-H3122 = tested on: NCI-H3122
How it was run: (§1)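 Lung cancer cell lines in 1536-well plates were dosed by pin tool the day after seeding, either with one drug alone or with a fixed anchor-drug dose plus five library-drug doses (not always all listed) in √10 steps. After 5 days, cells were fixed and their nuclei stained in one step (final 0.05% Triton X-100, 1% formaldehyde, 1 ug/ml Hoechst), then counted on 4× images. Relative viability is the nuclei count in treated wells divided by that in vehicle wells. Values are medians of duplicate plates.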

NCI-H2170 = tested on: NCI-H2170
How it was run: as §1

LXF-289 = tested on: LXF-289
How it was run: as §1

PC-3 [JPC-3] = tested on: PC-3 [JPC-3]
How it was run: as §1

NCI-H727 = tested on: NCI-H727
How it was run: as §1

EMC-BAC-2 = tested on: EMC-BAC-2
How it was run: as §1

NCI-H1993 = tested on: NCI-H1993
How it was run: as §1

NCI-H2228 = tested on: NCI-H2228
How it was run: as §1

NCI-H1944 = tested on: NCI-H1944
How it was run: as §1

A-427 = tested on: A-427
How it was run: as §1

HOP-62 = tested on: HOP-62
How it was run: as §1

NCI-H2009 = tested on: NCI-H2009
How it was run: as §1

NCI-H596 = tested on: NCI-H596
How it was run: as §1

LK-2 = tested on: LK-2
How it was run: as §1

NCI-H322M = tested on: NCI-H322M
How it was run: as §1

SK-MES-1 = tested on: SK-MES-1
How it was run: as §1

HARA = tested on: HARA
How it was run: as §1

SW 1573 = tested on: SW 1573
How it was run: as §1

NCI-H1792 = tested on: NCI-H1792
How it was run: as §1

SMILES: COc1cc2nccc(Oc3ccc(NC(=O)Nc4cc(C)on4)c(Cl)c3)c2cc1OC [Tivozanib] + CC1(C)CCC(c2ccc(Cl)cc2)=C(CN2CCN(c3ccc(C(=O)NS(=O)(=O)c4ccc(N[C@H](CCN5CCOCC5)CSc5ccccc5)c(S(=O)(=O)C(F)(F)F)c4)cc3)CC2)C1 [Navitoclax] (partner 0.5 µM)
- relative viability (NCI-H3122; first compound 0.005 µM): 1.03
- relative viability (NCI-H3122; first compound 0.01581 µM): 1
- relative viability (NCI-H3122; first compound 0.05 µM): 1.07
- relative viability (NCI-H3122; first compound 0.1581 µM): 1.03
- relative viability (NCI-H3122; first compound 0.5 µM): 1.03
- relative viability (NCI-H2170; first compound 0.005 µM): 0.537
- relative viability (NCI-H2170; first compound 0.01581 µM): 0.568
- relative viability (NCI-H2170; first compound 0.05 µM): 0.677
- relative viability (NCI-H2170; first compound 0.5 µM): 0.584
- relative viability (LXF-289; first compound 0.005 µM): 0.916
- relative viability (LXF-289; first compound 0.01581 µM): 0.942
- relative viability (LXF-289; first compound 0.05 µM): 0.915
- relative viability (LXF-289; first compound 0.1581 µM): 1.01
- relative viability (LXF-289; first compound 0.5 µM): 0.926
- relative viability (PC-3 [JPC-3]; first compound 0.005 µM): 0.735
- relative viability (PC-3 [JPC-3]; first compound 0.01581 µM): 0.87
- relative viability (PC-3 [JPC-3]; first compound 0.05 µM): 0.772
- relative viability (PC-3 [JPC-3]; first compound 0.1581 µM): 0.788
- relative viability (PC-3 [JPC-3]; first compound 0.5 µM): 0.809
- relative viability (NCI-H727; first compound 0.005 µM): 0.343
- relative viability (NCI-H727; first compound 0.01581 µM): 0.49
- relative viability (NCI-H727; first compound 0.05 µM): 0.412
- relative viability (NCI-H727; first compound 0.5 µM): 0.551
- relative viability (EMC-BAC-2; first compound 0.005 µM): 1.27
- relative viability (EMC-BAC-2; first compound 0.01581 µM): 1.11
- relative viability (EMC-BAC-2; first compound 0.05 µM): 1.21
- relative viability (EMC-BAC-2; first compound 0.1581 µM): 1.14
- relative viability (EMC-BAC-2; first compound 0.5 µM): 1.24
- relative viability (NCI-H1993; first compound 0.005 µM): 0.86
- relative viability (NCI-H1993; first compound 0.01581 µM): 0.857
- relative viability (NCI-H1993; first compound 0.05 µM): 0.967
- relative viability (NCI-H1993; first compound 0.1581 µM): 0.668
- relative viability (NCI-H1993; first compound 0.5 µM): 0.836
- relative viability (NCI-H2228; first compound 0.005 µM): 1.03
- relative viability (NCI-H2228; first compound 0.01581 µM): 0.891
- relative viability (NCI-H2228; first compound 0.05 µM): 0.754
- relative viability (NCI-H2228; first compound 0.1581 µM): 0.9
- relative viability (NCI-H2228; first compound 0.5 µM): 1.24
- relative viability (NCI-H1944; first compound 0.005 µM): 1.08
- relative viability (NCI-H1944; first compound 0.01581 µM): 1.02
- relative viability (NCI-H1944; first compound 0.05 µM): 1.05
- relative viability (NCI-H1944; first compound 0.1581 µM): 0.891
- relative viability (NCI-H1944; first compound 0.5 µM): 1.1
- relative viability (A-427; first compound 0.005 µM): 0.924
- relative viability (A-427; first compound 0.01581 µM): 0.989
- relative viability (A-427; first compound 0.05 µM): 0.988
- relative viability (A-427; first compound 0.1581 µM): 0.737
- relative viability (A-427; first compound 0.5 µM): 1.03
- relative viability (HOP-62; first compound 0.005 µM): 0.996
- relative viability (HOP-62; first compound 0.01581 µM): 1.08
- relative viability (HOP-62; first compound 0.05 µM): 1.07
- relative viability (HOP-62; first compound 0.1581 µM): 1.12
- relative viability (HOP-62; first compound 0.5 µM): 0.844
- relative viability (NCI-H2009; first compound 0.005 µM): 1.11
- relative viability (NCI-H2009; first compound 0.01581 µM): 1.16
- relative viability (NCI-H2009; first compound 0.05 µM): 1.19
- relative viability (NCI-H2009; first compound 0.1581 µM): 1.24
- relative viability (NCI-H2009; first compound 0.5 µM): 1.14
- relative viability (NCI-H596; first compound 0.005 µM): 0.94
- relative viability (NCI-H596; first compound 0.01581 µM): 1.07
- relative viability (NCI-H596; first compound 0.05 µM): 0.936
- relative viability (NCI-H596; first compound 0.1581 µM): 0.911
- relative viability (NCI-H596; first compound 0.5 µM): 0.922
- relative viability (LK-2; first compound 0.005 µM): 0.819
- relative viability (LK-2; first compound 0.01581 µM): 0.789
- relative viability (LK-2; first compound 0.05 µM): 0.952
- relative viability (LK-2; first compound 0.1581 µM): 0.802
- relative viability (LK-2; first compound 0.5 µM): 0.644
- relative viability (NCI-H322M; first compound 0.005 µM): 1.23
- relative viability (NCI-H322M; first compound 0.01581 µM): 1.09
- relative viability (NCI-H322M; first compound 0.05 µM): 1.28
- relative viability (NCI-H322M; first compound 0.1581 µM): 1.22
- relative viability (NCI-H322M; first compound 0.5 µM): 1.14
- relative viability (SK-MES-1; first compound 0.005 µM): 1.25
- relative viability (SK-MES-1; first compound 0.01581 µM): 1.16
- relative viability (SK-MES-1; first compound 0.05 µM): 1.4
- relative viability (SK-MES-1; first compound 0.1581 µM): 1.17
- relative viability (SK-MES-1; first compound 0.5 µM): 1.18
- relative viability (HARA; first compound 0.005 µM): 1.11
- relative viability (HARA; first compound 0.01581 µM): 1.04
- relative viability (HARA; first compound 0.05 µM): 1.19
- relative viability (HARA; first compound 0.1581 µM): 1.19
- relative viability (HARA; first compound 0.5 µM): 1.15
- relative viability (SW 1573; first compound 0.005 µM): 0.92
- relative viability (SW 1573; first compound 0.01581 µM): 0.911
- relative viability (SW 1573; first compound 0.05 µM): 0.949
- relative viability (SW 1573; first compound 0.1581 µM): 0.777
- relative viability (SW 1573; first compound 0.5 µM): 0.983
- relative viability (NCI-H1792; first compound 0.005 µM): 0.657
- relative viability (NCI-H1792; first compound 0.01581 µM): 0.638
- relative viability (NCI-H1792; first compound 0.05 µM): 0.657
- relative viability (NCI-H1792; first compound 0.1581 µM): 0.505
- relative viability (NCI-H1792; first compound 0.5 µM): 0.849
